“And” between values parts separate entries of the source, which are not always exact repeats. Equal entries are not always repeated.
Assays:
[1] = Z-potential measurement of polymersomes; assay type: physicochemical; conditions: 0.2 mg polymer/mL in NaCl 10 mM; 3 independent measurements
Procedure: (§1) DLS and Z-potential measurements (Zetasizer Nano ZS, Malvern Instruments, USA) were used to assess the average size, polydispersity, and surface charge of polymersome preparations. The size was measured at a concentration of 1 mg polymer/mL in PBS (10 mM of phosphate and 137 mM of NaCl). The z-potential was measured at 0.2 mg of polymer/mL in NaCl 10 mM). TEM was used to assess the size and morphology of assembled vesicles. Briefly, polymersomes were deposited from a water solution onto copper grids at 1mg/mL, stained with 0.75% phosphotungstic acid (pH 7), air-dried, and imaged by TEM (Tecnai 10, Philips, Netherlands). The number of polymersomes in the suspension was measured using the ZetaWiew instrument (Particle Metrix GmbH, Germany).

[2] = DLS size and polydispersity of polymersomes; assay type: physicochemical; conditions: 3 independent measurements
Procedure: as §1

NRP-1 [3] = biological target: T1, NRP-1 (Homo sapiens, UniProt O14786); conditions: unless proteolytically processed by uPA; cited from earlier work
T1 sequence (O14786 22-923): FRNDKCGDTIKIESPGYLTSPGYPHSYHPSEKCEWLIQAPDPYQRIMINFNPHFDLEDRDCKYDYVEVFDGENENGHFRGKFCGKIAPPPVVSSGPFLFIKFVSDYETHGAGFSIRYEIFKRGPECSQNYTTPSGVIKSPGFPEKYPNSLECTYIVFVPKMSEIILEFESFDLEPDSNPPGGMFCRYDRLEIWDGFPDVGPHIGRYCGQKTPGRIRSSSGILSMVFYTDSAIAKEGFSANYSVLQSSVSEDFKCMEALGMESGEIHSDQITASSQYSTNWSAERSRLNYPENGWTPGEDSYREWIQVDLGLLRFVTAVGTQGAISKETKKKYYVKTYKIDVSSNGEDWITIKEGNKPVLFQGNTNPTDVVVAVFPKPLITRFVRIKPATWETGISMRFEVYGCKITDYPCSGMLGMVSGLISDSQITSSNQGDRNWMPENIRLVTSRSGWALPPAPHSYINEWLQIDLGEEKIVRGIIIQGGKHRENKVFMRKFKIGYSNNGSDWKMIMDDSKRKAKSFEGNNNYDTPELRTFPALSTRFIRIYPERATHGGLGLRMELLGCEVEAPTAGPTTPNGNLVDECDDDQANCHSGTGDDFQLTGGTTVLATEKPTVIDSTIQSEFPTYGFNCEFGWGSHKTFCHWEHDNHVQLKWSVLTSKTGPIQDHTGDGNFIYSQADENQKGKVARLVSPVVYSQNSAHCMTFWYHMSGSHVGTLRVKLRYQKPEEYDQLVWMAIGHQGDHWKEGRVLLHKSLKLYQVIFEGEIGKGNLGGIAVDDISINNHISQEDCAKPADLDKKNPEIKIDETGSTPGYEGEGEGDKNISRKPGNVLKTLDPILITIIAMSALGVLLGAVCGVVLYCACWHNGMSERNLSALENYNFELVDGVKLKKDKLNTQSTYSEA

[4] = test system: orthotopic 4T1 breast tumors; experiment: In vivo PET-CT imaging of radiolabeled polymersomes in 4T1 tumor mice; design: species or system Balb/c mice
Procedure: (§2) For tumor induction, 1 million 4T1 cells in 50μL of PBS were orthotopically implanted in the mammary gland of Balb/c mice (Charles River Laboratories, Spain). After 3 days, when the tumor volume had reached ∼18 mm^3, the mice were injected in tail vein with 3.7-7.4MBq of radiolabeled polymersomes (1mg polymer, 100 μL, N=5 mice) and subjected to PET-CT scans. During the scan acquisitions the mice were kept anesthetized with 1.5−2% isofluorane blended with O2. The PET-CT scans were performed at 10 min, 2, 6, 12, 24, and 48 h using the Argus PET-CT scanner (Sedecal, Molecular Imaging, Spain). First, PET scans were acquired using the following acquisition protocol: whole body emission scan, 2 beds, 10 min of total acquisition time for the scans at 10 min, 2, 6, 12, and 24 h post-injection and 20 min for the 48 h time point. The acquisition method was static, using 400-700KeV energetic window, FBP reconstruction algorithm, with correction for scatter coincidences. For the CT scans the used current was 140μA, 40kV of voltage, rotation of 360 degrees, 4 shoots, 1 bed, acquisition time of 6 min, and a reconstruction binning of 2. After 48 h of radiolabeled polymersome injection the mice were sacrificed and the tumor, blood, and organs were excised and further used for biodistribution studies. The PET-CT images were processed with the Medical Image Data Examiner AMIDE software. The CT and PET images were overlaid, the tumor volume was manually extracted from the CT scans and the same ROI was applied in the PET images, averaged, and expressed as percentage of injected dose per cubic centimeter of tissue (ID/cc). For the rendered 3D PET-CT images, PMOD image analysis software (PMOD Technologies Ltd, Zürich, Switzerland) was used. A 3D Gauss Filter of 1.5x1.5x1.5mm was applied to the PET image in order to increase the signal to noise ratio for 3D visualization.

[5] = test system: human recombinant p32 protein; experiment: Binding of radiolabeled polymersomes to p32-coated magnetic beads; conditions: p32-coated Ni-NTA magnetic beads, 1 h, room temperature, 1% BSA, gamma counter, N=3
Procedure: Recombinant hexahistidine–tagged p32 was bacterially expressed and purified as previously described. For protein binding assays, Ni-NTA magnetic agarose beads (Qiagen, Germany) in binding buffer (50 mM Tris pH 7.4, 150 mM NaCl, 5mM imidazole) were coated with p32 protein at 15 μg of protein/10μL beads. Radiolabeled polymersomes were incubated with the p32-coated beads in binding buffer containing 1% BSA at room temperature for 1 h. The magnetic beads were washed with binding buffer and resuspended in a final volume of 1mL of binding buffer. The radioactivity of each sample was quantified by automatic gamma counter (2470 Wizard 2, Perkin Elmer).

[6] = Elimination rate of 124I from whole-body PET signal; design: species or system Balb/c mice; conditions: mouse, in vivo
Procedure: (§3) For biodistribution studies, the tumor, blood, and organs were weighed and the radioactivity was measured using the automatic gamma counter. A standard curve was generated using ^124I to determine the relationship between cpm and Bq. The biodistribution was expressed as percentage of injected dose per gram of tissue (ID/g). To determine the elimination rate of polymersomes, the radioactive signal in the whole mouse body was measured from the PET images at 10 min, 2, 6, 12, 24, and 48 h post-injection and normalized by the signal at 10 min post-injection. The elimination rate was expressed as signal in mouse x 100 divided by the signal at time zero.

NRP-1 [7] = biological target: T1, NRP-1; experiment: Binding of radiolabeled polymersomes to NRP1-coated magnetic beads; conditions: 1 h incubation, gamma counter, N=3
[8] = test system: orthotopic 4T1 breast tumors; experiment: Ex vivo biodistribution by gamma counter in 4T1 tumor mice; design: species or system Balb/c mice; conditions: for Increase in tumor accumulation by LinTT1 functionalization: versus untargeted polymersomes, 48 h, % ID/g
Procedure: as §2, §3

[9] = 48 h after i.v. injection, gamma counter

Cys-Tyr-Ahx-LinTT1 [LinTT1-Tyr-PS, PEG-PCL polymersomes functionalized with Cys-Tyr-Ahx-LinTT1 peptide]
Z-pot [1]: -0.1 ± 4 mV | Pdi ([2]; 1 mg polymer/mL in PBS): 0.15 | Size (hydrodynamic diameter) ([2]; intensity distribution, 1 mg polymer/mL in PBS (10 mM phosphate, 137 mM NaCl)): ~130 nm and 124 ± 62 nm

AKRGARSTA [LinTT1]
Binding of the peptide to NRP-1 (NRP-1 [3]): does not bind

Cys-Tyr-Ahx-LinTT1 [LinTT1-Tyr-^124I-PS, 124I-radiolabeled PEG-PCL polymersomes functionalized with Cys-Tyr-Ahx-LinTT1 peptide]
AUC in tumor, increase over non-targeted polymersomes ([4]; AUC of % ID/cc tumor versus time, 10 min to 48 h, N=5 mice): ~60% | Tumor accumulation at 48 h ([4]; PET quantification, 48 h after i.v. injection, N=5 mice, SEM): 12±0.9 ID/cc | Tumor accumulation at 24 h, increase over untargeted polymersomes ([4]; PET, 24 h after injection, N=5 mice): 67% | Accumulation in tumor at 24 h ([4]; i.v., 1 mg polymer, tumors ~20 mm^3, 24 h after administration, PET quantification): up to 20 % ID/cc | Tumor accumulation (no time stated) ([4]; i.v., PET quantification, discussion statement): > 20 % ID/cc | Increase in binding to p32 beads compared to non-targeted polymersomes [5]: ~10 fold | Injected polymersomes (124I) remaining in the body after 48 h [6]: 45% | Injected polymersomes (124I) remaining in the body at 24 h [6]: 67% | Binding to NRP-1 (NRP-1 [7]): did not bind | Accumulation in sentinel lymph node relative to Tyr-124I-PS [8, 9]: more than 2 fold | Ratio of % ID/g in tumor to liver [8, 9]: 2.5 times | Accumulation in tumors at 48 h ([8]; excised tumors, gamma counter, 48 h after i.v. injection, N=6, SEM): 26±3 % ID/g | Increase in tumor accumulation by LinTT1 functionalization [8]: > 70% | Increase in tumor accumulation by LinTT1 functionalization ([8]; listed as LinTT1-polymersomes): about 70%
